# According to patent US9302999B2, “Substituted triazoles as herbicides” (E. I. DU PONT DE NEMOURS AND COMPANY, priority 2012, dated 2016):
# What was measured:
# Assay type in all cases: in vivo
# [1] = system: barnyardgrass (Echinochloa crus-galli); experiment: Test A pre-/postemergence: barnyardgrass
# Excerpt: (§1) Seeds of barnyardgrass (Echinochloa crus-galli), crabgrass, large (large crabgrass, Digitaria sanguinalis), foxtail, giant (giant foxtail, Setaria faberii), morningglory (Ipomoea spp.), pigweed (Amaranthus retroflexus), velvetleaf (Abutilon theophrasti), wheat (Triticum aestivum), and corn (Zea mays) were planted into a blend of loam soil and sand and treated preemergence with a directed soil spray using test chemicals formulated in a non-phytotoxic solvent mixture which included a surfactant. At the same time these species were also treated with postemergence applications of test chemicals formulated in the same manner.
# (§2) Plants ranged in height from two to ten cm and were in the one- to two-leaf stage for the postemergence treatment. Treated plants and untreated controls were maintained in a greenhouse for approximately ten days, after which time all treated plants were compared to untreated controls and visually evaluated for injury. Plant response ratings, summarized in Table A, are based on a 0 to 100 scale where 0 is no effect and 100 is complete control. A dash (-) response means no test result.
# [2] = system: crabgrass, large (large crabgrass, Digitaria sanguinalis); experiment: Test A pre-/postemergence: crabgrass, large
# Excerpt: as §1, §2
# [3] = system: foxtail, giant (giant foxtail, Setaria faberii); experiment: Test A pre-/postemergence: foxtail, giant
# Excerpt: as §1, §2
# [4] = system: morningglory (Ipomoea spp.); experiment: Test A pre-/postemergence: morningglory
# Excerpt: as §1, §2
# [5] = system: pigweed (Amaranthus retroflexus); experiment: Test A pre-/postemergence: pigweed
# Excerpt: as §1, §2
# [6] = system: velvetleaf (Abutilon theophrasti); experiment: Test A pre-/postemergence: velvetleaf
# Excerpt: as §1, §2
# [7] = system: wheat (Triticum aestivum); experiment: Test A pre-/postemergence: wheat
# Excerpt: as §1, §2
# corn (Zea mays) = experiment: Test A pre-/postemergence: corn
# Excerpt: as §1, §2
# [8] = Postemergence, 125 g ai/ha, 0 to 100 scale, 0 is no effect, 100 is complete control
# [9] = Postemergence, 500 g ai/ha, visual rating on 0 to 100 scale (0 no effect, 100 complete control), approximately ten days
# [10] = Preemergence, 125 g ai/ha, 0 to 100 scale (0 no effect, 100 complete control)
# [11] = Preemergence, 500 g ai/ha, 0 to 100 scale, 0 is no effect, 100 is complete control
# [12] = Postemergence, 1000 g ai/ha, visual rating on 0 to 100 scale (0 no effect, 100 complete control), approximately ten days
# [13] = Preemergence, 1000 g ai/ha, 0 to 100 scale, 0 is no effect, 100 is complete control
# [14] = Preemergence, 125 g ai/ha, 0 to 100 scale where 0 is no effect and 100 is complete control
# [15] = Preemergence, 500 g ai/ha, 0 to 100 scale (0 no effect, 100 complete control)
SMILES,"Barnyardgrass plant response rating [1, 8]","Barnyardgrass plant response rating [1, 9]","Plant response rating, Barnyardgrass [1, 10]","Plant response rating, Barnyardgrass [1, 11]","Crabgrass, Large plant response rating [2, 8]","Crabgrass, Large plant response rating [2, 9]","Plant response rating, Crabgrass, Large [2, 10]","Plant response rating, Crabgrass, Large [2, 11]","Foxtail, Giant plant response rating [3, 8]","Foxtail, Giant plant response rating [3, 9]","Morningglory plant response rating [4, 8]","Morningglory plant response rating [4, 9]","Pigweed plant response rating [5, 8]","Pigweed plant response rating [5, 9]","Velvetleaf plant response rating [6, 8]","Velvetleaf plant response rating [6, 9]","Wheat plant response rating [7, 8]","Wheat plant response rating [7, 9]",Corn plant response rating (corn (Zea mays); [8]),Corn plant response rating (corn (Zea mays); [9]),further results
Cc1nn(-c2ccc(C(F)(F)F)cc2)nc1Nc1cccc(C(F)(F)F)c1 [Compound 69],10,10,0,0,10,20,0,10,10,10,20,30,30,90,10,20,0,10,10,20,"Plant response rating, Foxtail, Giant [3, 10]: 0; Plant response rating, Foxtail, Giant [3, 11]: 0; Plant response rating, Morningglory [4, 10]: 0; Plant response rating, Morningglory [4, 11]: 0; Plant response rating, Pigweed [5, 10]: 0; Plant response rating, Pigweed [5, 11]: 10; Plant response rating, Velvetleaf [6, 10]: 0; Plant response rating, Velvetleaf [6, 11]: 0; Plant response rating, Wheat [7, 10]: 0; Plant response rating, Wheat [7, 11]: 0; Plant response rating, Corn (corn (Zea mays); [10]): 0; Plant response rating, Corn (corn (Zea mays); [11]): 0"
Cc1nn(-c2ccc(F)cc2)nc1Cn1nc(C(F)(F)F)cc1C [Compound 97],,,,,,,,,,,,,,,,,,,,,"Barnyardgrass plant response rating [1, 12]: 30; Barnyardgrass plant response rating [1, 13]: 30; Crabgrass, Large plant response rating [2, 12]: 60; Crabgrass, Large plant response rating [2, 13]: 40; Foxtail, Giant plant response rating [3, 12]: 20; Foxtail, Giant plant response rating [3, 13]: 20; Morningglory plant response rating [4, 12]: 40; Morningglory plant response rating [4, 13]: 0; Pigweed plant response rating [5, 12]: 60; Pigweed plant response rating [5, 13]: 0; Velvetleaf plant response rating [6, 12]: 50; Velvetleaf plant response rating [6, 13]: 0; Wheat plant response rating [7, 12]: 0; Wheat plant response rating [7, 13]: 0; Corn plant response rating (corn (Zea mays); [12]): 10; Corn plant response rating (corn (Zea mays); [13]): 0"
Cc1nn(-c2ccc(F)cc2)nc1Oc1nccc(C(F)(F)F)n1 [Compound 102],0,0,0,0,0,10,0,0,0,0,0,0,10,70,0,0,0,0,0,0,"Plant response rating, Foxtail, Giant [3, 14]: 0; Plant response rating, Foxtail, Giant [3, 11]: 0; Plant response rating, Morningglory [4, 14]: 0; Plant response rating, Morningglory [4, 11]: 0; Plant response rating, Pigweed [5, 14]: 0; Plant response rating, Pigweed [5, 11]: 0; Plant response rating, Velvetleaf [6, 14]: 0; Plant response rating, Velvetleaf [6, 11]: 0; Plant response rating, Wheat [7, 14]: 0; Plant response rating, Wheat [7, 11]: 0; Plant response rating, Corn (corn (Zea mays); [10]): 0; Plant response rating, Corn (corn (Zea mays); [11]): 0"
Cc1nn(-c2ccc(C(F)(F)F)cc2)nc1Oc1cc(C(F)(F)F)nn1C [Compound 104],20,30,10,20,50,70,60,90,20,50,60,90,70,100,30,60,0,0,10,20,"Plant response rating, Foxtail, Giant [3, 14]: 60; Plant response rating, Foxtail, Giant [3, 11]: 90; Plant response rating, Morningglory [4, 14]: 0; Plant response rating, Morningglory [4, 11]: 0; Plant response rating, Pigweed [5, 14]: 30; Plant response rating, Pigweed [5, 11]: 90; Plant response rating, Velvetleaf [6, 14]: 0; Plant response rating, Velvetleaf [6, 11]: 30; Plant response rating, Wheat [7, 14]: 0; Plant response rating, Wheat [7, 11]: 0; Plant response rating, Corn (corn (Zea mays); [10]): 0; Plant response rating, Corn (corn (Zea mays); [11]): 0"
CCc1nn(-c2ccc(C(F)(F)F)cc2)nc1Cn1cnc(C(F)(F)F)c1Cl [Compound 121],0,0,,,0,10,,,0,0,0,0,0,20,0,10,0,0,0,10,"Plant response rating, Barnyardgrass [1, 14]: 0; Plant response rating, Barnyardgrass [1, 15]: 0; Plant response rating, Crabgrass, Large [2, 14]: 0; Plant response rating, Crabgrass, Large [2, 15]: 10; Plant response rating, Foxtail, Giant [3, 14]: 0; Plant response rating, Foxtail, Giant [3, 15]: 0; Plant response rating, Morningglory [4, 14]: 0; Plant response rating, Morningglory [4, 15]: 0; Plant response rating, Pigweed [5, 14]: 0; Plant response rating, Pigweed [5, 15]: 0; Plant response rating, Velvetleaf [6, 14]: 0; Plant response rating, Velvetleaf [6, 15]: 0; Plant response rating, Wheat [7, 14]: 0; Plant response rating, Wheat [7, 15]: 0; Plant response rating, Corn (corn (Zea mays); [14]): 0; Plant response rating, Corn (corn (Zea mays); [15]): 0"
